Like-named read-outs stand apart in the source and are kept apart here.
Experiments:
[1] = target: T1, 3-hydroxy-3-methylglutaryl-coenzyme A reductase (Rattus norvegicus, UniProt P51639); experiment: Method A: in vitro enzyme inhibition (method of Knauss et al.); assay type: biochemical
T1 sequence (P51639 1-887): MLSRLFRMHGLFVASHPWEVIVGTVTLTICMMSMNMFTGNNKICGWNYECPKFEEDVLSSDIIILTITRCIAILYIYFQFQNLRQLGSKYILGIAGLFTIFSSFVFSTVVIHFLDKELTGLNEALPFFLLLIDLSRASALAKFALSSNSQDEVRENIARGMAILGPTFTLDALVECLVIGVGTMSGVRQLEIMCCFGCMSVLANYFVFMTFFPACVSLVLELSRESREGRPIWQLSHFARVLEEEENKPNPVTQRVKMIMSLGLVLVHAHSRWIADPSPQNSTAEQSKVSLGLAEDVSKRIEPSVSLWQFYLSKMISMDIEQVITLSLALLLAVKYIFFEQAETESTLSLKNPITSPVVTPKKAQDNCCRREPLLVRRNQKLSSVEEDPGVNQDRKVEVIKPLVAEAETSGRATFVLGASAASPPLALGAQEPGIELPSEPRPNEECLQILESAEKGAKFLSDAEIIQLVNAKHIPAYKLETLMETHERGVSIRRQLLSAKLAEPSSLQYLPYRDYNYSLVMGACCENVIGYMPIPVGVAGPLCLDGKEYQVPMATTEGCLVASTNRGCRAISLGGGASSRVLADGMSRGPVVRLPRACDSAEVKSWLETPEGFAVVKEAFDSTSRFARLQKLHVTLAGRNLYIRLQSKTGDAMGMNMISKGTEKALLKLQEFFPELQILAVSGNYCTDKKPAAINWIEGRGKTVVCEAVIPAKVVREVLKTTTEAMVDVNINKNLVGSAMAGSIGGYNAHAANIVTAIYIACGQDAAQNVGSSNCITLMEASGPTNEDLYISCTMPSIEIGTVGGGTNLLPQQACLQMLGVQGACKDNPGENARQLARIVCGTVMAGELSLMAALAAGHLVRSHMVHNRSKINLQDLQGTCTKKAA

[2] = target: T1, 3-hydroxy-3-methylglutaryl-coenzyme A reductase; details: from E.P. publication 0 024 348, cited from earlier work

Cc1cc(C)c(/C=C/[C@@H]2C[C@@H](O)CC(=O)O2)c(-c2ccc(F)c(C)c2)c1 [III, (+)-(4R, 6S)-(E)-6-[2-(3,3',5-trimethyl-4'-fluoro-[1,1'-biphenyl]-2-yl)ethenyl]-3,4,5,6-tetrahydro-4-hydroxy-2H-pyran-2-one]
inhibition of cholesterol biosynthesis (in words) ([1]; compared with compactin, test not specified): surpassing the inhibitory activity of compactin
inhibitory potency (relative, in words) ([1]; compared with the (+) trans 3,5-dichloro-4'-fluoro-biphenyl compound, tested as sodium salt of the dihydroxy acid): several times more potent

O=C1C[C@H](O)C[C@@H](/C=C/c2c(Cl)cc(Cl)cc2-c2ccc(F)cc2)O1 [(E)-6-[2-(3,5-dichloro-4'-fluoro[l,l'-biphenyl]-2-yl)ethenyl]-3,4,5,6-tetrahydro-4-hydroxy-2H-pyran-2-one]
inhibitory potency (relative, in words) ([2]; compared with the (+) trans enantiomer of the 2,4-dichloro-6-(phenylmethoxy)phenyl compound, tested as sodium salt of the dihydroxy acid): even more potent

O=C1CC(O)CC(CCc2c(Cl)cc(Cl)cc2OCc2ccccc2)O1 (single isomer, unassigned; (+)) [6-[2-(2,4-dichloro-6-(phenylmethoxy)phenyl)ethyl]-3,4,5,6-tetrahydro-4-hydroxy-2H-pyran-2-one]
IC50 ([2]; method A, tested as the sodium salts of the corresponding dihydroxy acid forms): 68 nM

Source: patent EP0068038A1, “(+)-(4R,6S)-(E)-6-(2-(4'-fluoro-3,3',5-trimethyl-(1,1'-biphenyl)-2-yl)ethenyl)-3,4,5,6-tetrahydro-4-hydroxy-2H-pyran-2-one, a process for preparing and a pharmaceutical composition containing the same” (Merck & Co., Inc., priority 1981, dated 1983)
